# From PMC6481345, “A novel anti-melanoma SRC-family kinase inhibitor” (Oncotarget, 2019)
# Like-named read-outs stand apart in the source and are kept apart here.
# Legend:
# [1] = system: YUKIM melanoma cells; test: CellTiter-Glo Luminescent Cell Viability Assay; format: cell-based, human
# Experimental: (§1) The melanoma cells were grown in OptiMEM (Invitrogen, Carlsbad, CA) supplemented with 5% fetal calf serum and antibiotics. The normal human melanocytes (NBMEL) were grown in medium supplemented with bFGF, IBMX and dbcAMP [32]. Most of the Yale melanoma cell lines were characterized by next-generation sequencing (Supplementary Table 2).
# (§2) Cell proliferation was measured with the CellTiter-Glo® Luminescent Cell Viability Assay (Promega Corporation, Madison, WI). Melanoma cells were seeded in 96-well plates in triplicate or quadruplet wells, with increasing concentrations of kinase inhibitors for 72 hrs. The rate of proliferation was also tested after knockdown of different SRC-family kinases (SFK) with hairpin lentivirus shRNA as indicated. […] The statistical significance of synergism of response to drug combinations was evaluated by following Chou and Talalay algorithm. See also details in Supplementary Material.
# [2] = system: YUPEET melanoma cells; test: CellTiter-Glo Luminescent Cell Viability Assay; format: cell-based, human
# Experimental: as §1, §2
# [3] = system: YUROB melanoma cells; test: CellTiter-Glo Luminescent Cell Viability Assay; format: cell-based, human
# Experimental: as §1, §2
# [4] = system: YUSIT1 melanoma cells; test: CellTiter-Glo Luminescent Cell Viability Assay; format: cell-based, human
# Experimental: as §1, §2
# [5] = system: YUSIV melanoma cells; test: CellTiter-Glo Luminescent Cell Viability Assay; format: cell-based, human
# Experimental: as §1, §2
# [6] = system: CCRF-CEM leukemia cell line; test: NCI-60 human tumor cell line screen; format: cell-based
# Experimental: (§3) We first tested the impact of SAB298 on NCI-60 human tumor cell lines that included eight melanomas (performed by the NCI Development Therapeutics Program).
# (§4) SFK-inhibitors were tested on a panel of NCI-60 cell lines (Supplementary Table 1) and 30 melanoma cell lines and NBMEL, i.e., normal human melanocytes isolated from a newborn foreskin (Table 1 and Supplementary Table 2). The Yale melanoma cohort designated YU originated from tumors excised to improve patient quality of life and used with participants’ informed consent according to Health Insurance Portability and Accountability Act (HIPAA) regulations with Human Investigative Committee protocol.
# (§5) Supplementary Table 1: Cellular activity of SAB298 in a Panel of NCI-60 cancer cell lines*
# (§6) measured protein; and TI is LC50/GI50.
# (§7) Supplementary Table 2: Description of Melanoma Cell lines. See Supplementary_Table_2
# [7] = system: HCT-116 colon cancer cell line; test: NCI-60 human tumor cell line screen; format: cell-based
# Experimental: as §3, §4, §5, §6, §7
# [8] = system: LOX IMVI melanoma cell line; test: NCI-60 human tumor cell line screen; format: cell-based
# Experimental: as §3, §4, §5, §6, §7
# [9] = system: MCF7 breast cancer cell line; test: NCI-60 human tumor cell line screen; format: cell-based
# Experimental: as §3, §4, §5, §6, §7
# [10] = system: MOLT-4 leukemia cell line; test: NCI-60 human tumor cell line screen; format: cell-based
# Experimental: as §3, §4, §5, §6, §7
# [11] = system: NCI-1460 NSCLC cell line; test: NCI-60 human tumor cell line screen; format: cell-based
# Experimental: as §3, §4, §5, §6, §7
# [12] = system: SF-268 CNS cancer cell line; test: NCI-60 human tumor cell line screen; format: cell-based
# Experimental: as §3, §4, §5, §6, §7
# [13] = system: UACC-62 melanoma cell line; test: NCI-60 human tumor cell line screen; format: cell-based
# Experimental: as §3, §4, §5, §6, §7
# [14] = system: NCI-60 melanoma cell lines; test: NCI-60 human tumor cell line screen, melanomas (summary); format: cell-based; conditions: melanoma cell lines of NCI-60, read-out: IC50, range over cell lines
# Experimental: as §3, §4, §5, §6, §7
# [15] = system: pY467/199 PIK3R1/3; test: Western blot, phospho-Y467/199 PIK3R1/3; format: cell-based, human; conditions: melanoma cell lines; 0.5 µM, 5 hrs
# Experimental: (§8) We used standard techniques to identify changes in intracellular signaling in response to various treatments. Briefly, melanoma cells were incubated with test compounds, using DMSO as a control, collected by scraping on ice, and lysed in RIPA buffer supplemented with protease and phosphatase inhibitors (MA #78428, and #78425, respectively, Thermo Fisher Scientific, Waltham, MA). Protein concentrations were measured with the BioRad kit (Bio-Rad Laboratories, Hercules, CA), SDS sample buffer was added, extracts were heated at 95°C, sonicated and centrifuged. Cell extracts (20 µg/lane) were fractionated in 3%–8% or 4–12 % tris-acetate gel (NP0006, NuPAGE Life Technologies). […]
# [16] = system: pp38 T180/Y182; test: Western blot, phospho-p38; format: cell-based, human; conditions: YUSIV melanoma cells
# Experimental: as §8
# [17] = 50% growth inhibition, five dose, average of 2 experiments
# [18] = cytotoxic concentration, 50% reduction in measured protein, read-out: LC50 (the source's name)
smiles,measurement,setting,value
"Nc1ncnc2c1c(-c1ccc(Oc3ccccc3)cc1)nn2C[C@@H]1SSC[C@@H]1O [SAB298, (3S, 4S)-3-((4-amino-3-(4-phenoxyphenyl)-1H-pyrazolo[3,4-d]pyrimidin-1-yl)methyl)-1,2-dithiolan-4-ol]",IC50,"[1]; Homo sapiens, NRAS Q61R, cell viability, 72 hrs",561 nM
same,AUC1,[1]; growth response,173
same,AUC2,[1]; growth response,60
same,IC50,"[2]; Homo sapiens, BRAF V600E, cell viability, 72 hrs",55 nM
same,AUC1,[2]; growth response,672
same,AUC2,[2]; growth response,7
same,IC50,"[3]; Homo sapiens, 72 h, YUROB, HRAS Q61K, cell viability, 72 hrs, read-out: IC50",696 nM
same,IC50,"[3]; Homo sapiens, YUROB HRAS Q61K, Variation 2 (0 effect omitted), read-out: Dm (dose for median effect, median-effect equation)",1860 nM
same,IC50,"[3]; Homo sapiens, YUROB HRASQ61K, Variation 1 (0 effect coded 1E-6), read-out: Dm (dose for median effect, median-effect equation)",5180 nM
same,IC50,"[3]; YUROB, HRAS Q61K, cell viability, 72 hrs, read-out: IC50",1250 nM
same,AUC1,"[3]; YUROB, growth response",148
same,AUC2,"[3]; YUROB, growth response",9
same,IC50,"[4]; Homo sapiens, YUSIT1, BRAF V600K, cell viability, 72 hrs",238 nM
same,AUC1,"[4]; YUSIT1, growth response",166
same,AUC2,"[4]; YUSIT1, growth response",32
same,IC50,"[5]; Homo sapiens, PDE8A-RAF1 fusion, cell viability, 72 hrs",81 nM
same,AUC1,[5]; growth response,656
same,AUC2,[5]; growth response,10
same,GI50,[6]; [17],61 nM
same,CC50,[6]; [18],> 100000 nM
same,GI50,[7]; [17],134 nM
same,CC50,[7]; [18],6520 nM
same,GI50,[8]; [17],170 nM
same,CC50,[8]; [18],4560 nM
same,GI50,[9]; [17],138 nM
same,CC50,[9]; [18],53000 nM
same,GI50,[10]; [17],32 nM
same,CC50,[10]; [18],> 100000 nM
same,GI50,[11]; [17],29 nM
same,CC50,[11]; [18],551 nM
same,GI50,[12]; [17],38 nM
same,CC50,[12]; [18],> 100000 nM
same,GI50,[13]; [17],182 nM
same,CC50,[13]; [18],872 nM
same,IC50,[14],21 to 550 nM
same,phospho-Y467/199 PIK3R1/3 level,[15],suppressed PI3K
same,pp38 T180/Y182 level,[16],induced p38 T180/Y182 phosphorylation
